Test results from patent publication US20100267712A1, “ISOINDOLINE COMPOUNDS FOR THE TREATMENT OF SPINAL MUSCULAR ATROPHY AND OTHER USES” (The United States of America, as represented by the …, priority 2007, published 2010).

System: SMN2-linked luciferase-reporter gene construct
Test: SMN Splice Reporter Assay (SMN2-linked luciferase reporter)
Format: cell-based
Conditions: for EC50: cervical carcinoma cell lines, SMN2 splice luciferase reporter; for Fold Increase: fold-increase of luciferase over baseline reading of transformed cells without any test compound
Description: As previously discussed, SMN1 is the gene deleted in SMA patients; the SMN2 gene remains intact in both SMA and normal patients. Therefore, SMN2 provides a potential means of increasing SMN production in SMA patients and is, thus, a target for developing SMA treatments. SMN2 is identical to SMN1 with the exception of a single base pair change that results in reduced expression of the gene. The reduction is based on the creation of an alternatively spliced RNA that produces an unstable protein carrying a deletion of exon 7. Both full length SMN and exon 7 deleted SMN are produced by the SMN2 gene via alternative RNA splicing, but the major product is the unstable deleted form.
Cervical carcinoma cell lines were transformed with a SMN2-linked luciferase-reporter gene construct. The reporter is designed to detect shifts in the alternative splicing of SMN2 sequences. In particular, the reporter is constructed as a fusion of the alternatively spliced sequences of the SMN2 gene and the luciferase gene. Luciferase sequences are in the correct translational reading frame only when the SMN2 sequences are spliced according to the normal SMN1 mechanism (e.g., splicing to include exon 7), which allows for translation of the stable SMN protein. Compounds were tested in the assay by administering the compound to the cell line and detecting an increase in the luciferase activity. The assay is described in greater detail in Zhang et al., Gene Ther., 8: 1532-8 (2001). Compounds were administered as described in Lunn et al, Chem. & Biol, 11: 1489-1493 (2004).
The results are reported as a fold-increase over a baseline reading of transformed cells without any test compound. The EC50 value also is reported in Table 1 for some exemplary compounds of the invention.

Row | Compound | EC50 [nM] | Fold Increase
1 | O=C1c2ccccc2CN1c1ccc(Br)cn1 [Example 112648] | 456 | 1.264
2 | O=C1c2ccccc2CN1c1ccc(Br)nc1 [Example 112649] | 18200 | 1.373
3 | CC(C)(C)OC(=O)Cc1ccc(N2Cc3ccccc3C2=O)nc1 [Example 112719] | 6580 | 1.324
4 | COC(=O)C1CCc2cc(N3Cc4ccccc4C3=O)ccc21 (stereo not drawn) [Example 113487] | 143 | 1.259
5 | O=C(O)C1CCc2cc(N3Cc4ccccc4C3=O)ccc21 (stereo not drawn) [Example 113488] | – | 1.24
6 | O=C1c2ccccc2CN1c1ccc2c(c1)CCC2 [Example 116070] | 67 | 1.445
7 | O=C1c2ccccc2CN1c1ccc2c(c1)OCO2 [Example 116238] | 2450 | 1.235
8 | COc1ccc2c(c1)C(=O)N(c1ccc3c(c1)CCC3)C2 [Example 116241] | 98 | 1.512
9 | COc1ccc2c(c1)C(=O)N(c1ccc3c(c1)OCO3)C2 [Example 116360] | – | 1.282
10 | O=C1c2ccccc2CN1c1ccc2c(c1)OC(F)(F)O2 [Example 116485] | 2240 | 1.202
11 | COc1ccc2c(c1)C(=O)N(c1ccc3c(c1)OC(F)(F)O3)C2 [Example 116565] | 519 | 1.3
12 | Cc1ccc(N2Cc3cc4c(cc3C2=O)OCCO4)nc1 [Example 118418] | 63 | 1.496
13 | COc1ccc2c(c1)C(=O)N(c1ccc(C)cn1)C2 [Example 118553] | 166 | 1.308
14 | Cc1ccc(N2Cc3cc4c(cc3C2=O)OCCO4)cn1 [Example 118554] | 708 | 1.364
15 | COc1ccc2c(c1)C(=O)N(c1ccc3ccn(C)c3c1)C2 [Example 118561] | 143 | 1.74
16 | COc1ccc2c(c1)C(=O)N(c1ccc(C)nc1)C2 [Example 118735] | – | 1.149
17 | O=C1c2cc3c(cc2CN1c1ccc(Br)cn1)OCCO3 [Example 118736] | 137 | 1.413
18 | COc1ccc2c(c1)C(=O)N(c1ccc(Br)cn1)C2 [Example 118737] | 415 | 1.358
19 | O=C1c2cc3c(cc2CN1c1ccc2sccc2c1)OCCO3 [Example 118900] | 66 | 1.399

Row | Compound | EC50 [nM] | Fold Increase
20 | Cn1ccc2ccc(N3Cc4cc5c(cc4C3=O)OCCO5)cc21 [Example 118902] | 29 | 1.774
21 | O=C1c2cc3c(cc2CN1c1ccc2ccoc2c1)OCCO3 [Example 118903] | 6 | 1.458
22 | O=C1c2cc(OC(F)F)ccc2CN1c1ccc2c(c1)CCC2 [Example 119337] | 157 | 1.66
23 | COc1ccc2c(c1)C(=O)N(c1ccc3c(c1)NC(=O)CO3)C2 [Example 119516] | – | 1.182
24 | CCCn1ccc2cc(N3Cc4ccc(OC)cc4C3=O)ccc21 [Example 119517] | 439 | 1.59
25 | COc1ccc2c(c1)C(=O)N(c1ccc3sccc3c1)C2 [Example 119519] | 31 | 1.666
26 | CC=Cc1ccc2c(c1)C(=O)N(c1ccc3c(ccn3C)c1)C2 [Example 119520] | 45 | 1.54
27 | COc1ccc2c(c1)C(=O)N(c1ccc(C(C)C)cn1)C2 [Example 119654] | 235 | 1.44
28 | COc1ccc2c(c1)C(=O)N(c1ccc(C(C)C)nc1)C2 [Example 119655] | 491 | 1.372
29 | COc1ccc2c(c1)C(=O)N(c1ccc3c(c1)OCC(=O)N3)C2 [Example 119656] | 78 | 1.375
30 | COc1ccc2c(c1)C(=O)N(c1ccc3[nH]ccc3c1)C2 [Example 119657] | – | 1.21
31 | CN(C)c1ccc2c(c1)C(=O)N(c1ccc3c(c1)CCN3C)C2 [Example 119660] | – | 1.074
32 | COc1cccc2c1CN(c1ccc3c(ccn3C)c1)C2=O [Example 119865] | 842 | 1.444
33 | COc1ccc2c(c1)C(=O)N(c1ccc3nc[nH]c3c1)C2 [Example 119866] | 421 | 1.313
34 | CCCn1ccc2ccc(N3Cc4ccc(OC)cc4C3=O)cc21 [Example 119868] | 2280 | 1.582
35 | COc1ccc2c(c1)CN(c1ccc3ccn(C)c3c1)C2=O [Example 119870] | 242 | 1.83
36 | Cn1ccc2ccc(N3Cc4ccc(Br)cc4C3=O)cc21 [Example 120117] | 829 | 1.519
37 | Cn1ccc2ccc(N3Cc4cc(Br)ccc4C3=O)cc21 [Example 120118] | 453 | 1.893
38 | Cn1ccc2cc(N3Cc4c(N)cccc4C3=O)ccc21 [Example 120120] | – | 1.094

Row | Compound | EC50 [nM] | Fold Increase
39 | COc1cccc2c1CN(c1ccc3ccn(C)c3c1)C2=O [Example 120123] | 1100 | 1.966
40 | COc1cccc2c1C(=O)N(c1ccc3ccn(C)c3c1)C2 [Example 120124] | – | 1.17
41 | COc1cccc2c1C(=O)N(c1ccc3c(ccn3C)c1)C2 [Example 120125] | 540 | 1.332
42 | Cc1cccc2c1C(=O)N(c1ccc3c(ccn3C)c1)C2 [Example 120278] | 161 | 1.502
43 | Cc1cccc2c1C(=O)N(c1ccc3ccn(C)c3c1)C2 [Example 120279] | 242 | 1.784
44 | Cn1ccc2cc(N3Cc4cccc(Br)c4C3=O)ccc21 [Example 120280] | 455 | 1.527
45 | Cn1ccc2ccc(N3Cc4cccc(Br)c4C3=O)cc21 [Example 120281] | 397 | 1.788
46 | Cn1ccc2ccc(N3Cc4cccc([N+](=O)[O-])c4C3=O)cc21 [Example 120282] | 737 | 1.291
47 | COc1ccc2c(c1)C(=O)N(c1ccc3ccn(C(C)C)c3c1)C2 [Example 120283] | – | 1.273
48 | COCCn1ccc2ccc(N3Cc4ccc(OC)cc4C3=O)cc21 [Example 120284] | 7870 | 1.19
49 | Cn1ccc2cc(N3Cc4ccccc4C3=O)ccc21 [Example 120287] | 158 | 1.433
50 | Cn1ccc2cc(N3Cc4ccc(-c5ccccc5)cc4C3=O)ccc21 [Example 120288] | 408 | 1.364
51 | Cn1ccc2cc(N3Cc4c(Br)cccc4C3=O)ccc21 [Example 120289] | 1030 | 1.39
52 | Cn1ccc2ccc(N3Cc4c(Br)cccc4C3=O)cc21 [Example 120290] | 609 | 1.386
53 | COc1ccc2c(c1)C(=O)N(c1ccc3c(c1)ncn3C)C2 [Example 120291] | 111 | 1.362
54 | Cn1ccc2cc(N3Cc4cccc(N)c4C3=O)ccc21 [Example 120427] | 294 | 1.606
55 | Cn1ccc2cc(N3Cc4cccc([N+](=O)[O-])c4C3=O)ccc21 [Example 120428] | 338 | 1.262
56 | Cn1ccc2ccc(N3Cc4cccc(N)c4C3=O)cc21 [Example 120429] | 152 | 1.745
57 | COCn1ccc2ccc(N3Cc4ccc(Br)cc4C3=O)cc21 [Example 120430] | 306 | 1.374
